Test results as given in the supplement of paper PMC5908809.

Legend:
[1] = test system: normal primary NK cells, pool 1 (3 donors) (IL-2 2.5 ng/mL); assay: percent inhibition of viability; higher = more inhibition; settings: 72 h
[2] = test system: NK-92 (IL-2 2.5 ng/mL); assay: as above; settings: 72 h
[3] = test system: SNK-6 (IL-2 2.5 ng/mL); assay: as above; settings: 72 h
[4] = test system: KHYG-1 (IL-2 2.5 ng/mL); assay: as above; settings: 72 h
[5] = test system: DERL-7 (IL-2 2.5 ng/mL); assay: as above; settings: 72 h
[6] = test system: NK-YS (IL-2 2.5 ng/mL); assay: as above; settings: 72 h
[7] = test system: NKL (IL-2 2.5 ng/mL); assay: as above; settings: 72 h
[8] = test system: YT (IL-2 2.5 ng/mL); assay: as above; settings: 72 h
[9] = test system: normal primary NK cells, pool 1 (3 donors), resting (IL-2 0 ng/mL); assay: as above; settings: 72 h
[10] = test system: normal primary NK cells, pool 2 (3 donors) (IL-2 2.5 ng/mL); assay: as above; settings: 72 h
[11] = test system: IMC-1 (IL-2 20 ng/mL); assay: as above; settings: 72 h
[12] = test system: normal primary NK cells, pool 3 (3 donors) (IL-2 2.5 ng/mL); assay: as above; settings: 72 h
[13] = test system: KAI3 (IL-2 2.5 ng/mL); assay: as above; settings: 72 h
[14] = test system: normal NK cells expanded with K562-aAPC; assay: as above; settings: 72 h, IL-2 2.5 ng/mL
Experimental: (§1)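 Drug sensitivity and resistance testing on K562-aAPC-expanded normal NK cells: 5 concentrations (10-fold steps over a 10,000-fold range), 72 h at 37 °C, viability by CellTiter-Glo normalised to DMSO and benzethonium chloride controls; DSS from the fitted curve.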

[15] = test system: normal NK cells expanded with K562-aAPC; assay: drug sensitivity score (DSS) (DSS units); higher = more sensitive; extreme values may be limits of the assay; settings: 72 h; IL-2 2.5 ng/mL
Experimental: as §1

[16] = test system: normal primary NK cells, pool 1 (3 donors) (IL-2 2.5 ng/mL); assay: as above; settings: 72 h
[17] = test system: NK-92 (IL-2 2.5 ng/mL); assay: as above; settings: 72 h
[18] = test system: SNK-6 (IL-2 2.5 ng/mL); assay: as above; settings: 72 h
[19] = test system: KHYG-1 (IL-2 2.5 ng/mL); assay: as above; settings: 72 h
[20] = test system: DERL-7 (IL-2 2.5 ng/mL); assay: as above; settings: 72 h
[21] = test system: NK-YS (IL-2 2.5 ng/mL); assay: as above; settings: 72 h
[22] = test system: NKL (IL-2 2.5 ng/mL); assay: as above; settings: 72 h
[23] = test system: YT (IL-2 2.5 ng/mL); assay: as above; settings: 72 h
[24] = test system: normal primary NK cells, pool 1 (3 donors), resting (IL-2 0 ng/mL); assay: as above; settings: 72 h
[25] = test system: normal primary NK cells, pool 2 (3 donors) (IL-2 2.5 ng/mL); assay: as above; settings: 72 h
[26] = test system: IMC-1 (IL-2 20 ng/mL); assay: as above; settings: 72 h
[27] = test system: normal primary NK cells, pool 3 (3 donors) (IL-2 2.5 ng/mL); assay: as above; settings: 72 h
[28] = test system: KAI3 (IL-2 2.5 ng/mL); assay: as above; settings: 72 h

COc1ccc(-c2cc3c(C)nc(N)nc3n([C@H]3CC[C@H](OCCO)CC3)c2=O)cn1 (max concentration tested 10000 nM)
percent inhibition of viability [%]
Settings	1 nM	10 nM	100 nM	1000 nM	10000 nM
[1]	-2.26	7.17	28.9	35.8	99.4
[2]	16.6	20.7	49.1	75.7	97.2
[3]	-16.2	-10.9	2.3	30.8	65.3
[4]	2.41	2.54	15.7	68.3	103
[5]	2.23	21.8	69.6	92	99.9
[6]	1.08	-1.02	20.1	62.4	85
[7]	-11.1	4.69	32.7	66.2	93.9
[8]	8.27	10.8	38.5	76.5	86.5
[9]	19.4	14.7	33.7	39	98.8
[10]	-0.57	7.93	21.5	39.9	96.6
[11]	-2.45	-13.7	-14.2	-15.4	64.2
[12]	5.05	8.38	19.9	31.5	96.7
[13]	1.74	8.43	34.4	63.8	82.1
[14]	-6.01	3.97	27.8	42.7	60.2

Settings	drug sensitivity score
[15]	11.5
[16]	11.4
[17]	22.4
[18]	7.29
[19]	15
[20]	27.6
[21]	14.1
[22]	16.6
[23]	19.1
[24]	14.5
[25]	11
[26]	2.72
[27]	8.86
[28]	16.5

Cc1cn(-c2cc(NC(=O)c3ccc(C)c(Nc4nccc(-c5cccnc5)n4)c3)cc(C(F)(F)F)c2)cn1 [Nilotinib] (max concentration tested 10000 nM)
percent inhibition of viability [%]
Settings	1 nM	10 nM	100 nM	1000 nM	10000 nM
[1]	3.44	-14	-6.22	-13.6	-12.9
[2]	12.4	5.92	27.1	23.8	33.9
[3]	11.9	22.4	9.61	18.6	37.7
[4]	-0.89	0.67	11.9	5.38	17.9
[5]	-4.23	4.31	-3.59	-5.83	-5.46
[6]	-1.07	-0.64	9.04	11.3	15.7
[7]	-17.5	-6.91	-4.77	29.9	50.9
[8]	1.35	1.76	8.97	16.1	18.2
[9]	7.74	-12.7	-5.01	-11.6	-17.4
[10]	-15.7	-12.8	-10.3	-4.04	1.26
[11]	-4.03	-1.9	2.58	0.7	-38.1
[12]	-13.2	-5.87	-1.78	-9.25	-1.3
[13]	-3.54	-7.12	4.99	7.48	20
[14]	-1.85	-4.37	-3.71	7.45	26.5

Settings	drug sensitivity score
[15]	2.11
[16]	0
[17]	7.73
[18]	6.76
[19]	0.72
[20]	0
[21]	1.36
[22]	6.35
[23]	2.28
[24]	0
[25]	0
[26]	0
[27]	0
[28]	0.95

COc1ccc(-c2ccc3c(N4CCOC[C@@H]4C)nc(N4CCOC[C@@H]4C)nc3n2)cc1CO [AZD8055] (max concentration tested 10000 nM)
percent inhibition of viability [%]
Settings	1 nM	10 nM	100 nM	1000 nM	10000 nM
[1]	-5.65	6.16	8.42	38.2	29.2
[2]	8.5	22.1	48.4	64.4	97.2
[3]	-1.89	12.4	53.8	54.5	54.5
[4]	3.41	7.07	30.4	82.5	82.6
[5]	0.54	34.1	65.8	86.8	88.3
[6]	4.19	9.89	45.4	66.8	78.2
[7]	9.88	42.8	61.2	63.9	61.8
[8]	7.4	12.9	43.8	56.6	68.3
[9]	-13.5	-7.65	-3.85	9.37	-4.87
[10]	-5.63	5.36	15.5	20	22.5
[11]	1.04	-9.13	-36.4	1.86	16.9
[12]	-5.43	8.78	9.67	14.1	16.9
[13]	16.4	25.7	50.1	58.8	60.9
[14]	6.73	19.9	29.3	42.1	41.3

Settings	drug sensitivity score
[15]	12.8
[16]	8.04
[17]	20.7
[18]	19.1
[19]	18.6
[20]	27.5
[21]	18.9
[22]	25.5
[23]	17.3
[24]	0
[25]	4.67
[26]	0.56
[27]	2.13
[28]	20.6

COc1cc2ncnc(Oc3cccc(NC(=O)Nc4cc(C(C)(C)C(F)(F)F)on4)c3)c2cc1OC (max concentration tested 10000 nM)
percent inhibition of viability [%]
Settings	1 nM	10 nM	100 nM	1000 nM	10000 nM
[1]	-8.45	9.57	-3.9	2.93	0.51
[2]	-0.01	2.35	-2.76	14.8	28.1
[3]	-21	-20.4	-14.8	-14.3	-12
[4]	-4.24	2.96	2.93	12.8	22.6
[5]	-5.16	6.23	-3	4.56	-7.99
[6]	-5.12	-3.89	6.64	10.2	22.5
[7]	4.1	2.39	15.8	41.7	42.7
[8]	-6.09	0.07	-0.35	27.3	17.8
[9]	-30.4	6.49	-14	-6.06	-6.31
[10]	-11.8	4.36	-8.21	-2.04	-8.58
[11]	-1.62	-0.53	0.44	-4.34	6.15
[12]	-10.2	8.96	-2.46	-8.5	-3.67
[13]	0.98	-5.32	2.9	6.52	22.6
[14]	-1.51	-5.86	-2.54	20.8	24.9

Settings	drug sensitivity score
[15]	3.18
[16]	0
[17]	2.92
[18]	0
[19]	1.77
[20]	0
[21]	1.47
[22]	9.3
[23]	4.37
[24]	0
[25]	0
[26]	0
[27]	0
[28]	1.44

Cc1nc(N)sc1-c1ccnc(Nc2ccc(N3CCOCC3)cc2)n1 [CYC-116] (max concentration tested 10000 nM)
percent inhibition of viability [%]
Settings	1 nM	10 nM	100 nM	1000 nM	10000 nM
[1]	-7.14	-2.39	-10.8	13.2	71.7
[2]	-10.5	-10.4	3.17	39.8	72.8
[3]	0.9	-6.56	15.3	73.9	72.3
[4]	-0.11	-0.55	5.34	70.7	106
[5]	-3.32	-3.55	6.03	60.9	84.2
[6]	-2.66	-0.98	6.79	70.6	70.8
[7]	-16	-8.68	-5.36	42.6	83.9
[8]	0.75	1.77	4.66	29.5	94.7
[9]	-4.6	6.4	-9.95	-18.7	23.6
[10]	-11.2	-13.2	-3.79	16.1	68.8
[11]	-0.53	-4.65	3.54	44.8	83.8
[12]	-12.5	-8.65	4.23	3.35	71.4
[13]	-1.55	-6.85	1.16	39.8	89.7
[14]	-2.89	-0.2	2.84	57.5	82

Settings	drug sensitivity score
[15]	11.5
[16]	6.12
[17]	8.76
[18]	16
[19]	14.2
[20]	12.4
[21]	14.1
[22]	9.96
[23]	9.36
[24]	0.44
[25]	6.33
[26]	9.98
[27]	4.4
[28]	10.1
